# Article PMC12903857
# Experiments:
# [1] = system: 80 peptides representing a diverse set of 14-3-3 clients; experiment: FA selectivity panel, single point; settings: 10.5 μM compound, 100 nM client peptides, overnight; hit = change in anisotropy of more than 15 units
# Procedure: concentraton (50 μM, maximum eﬀect) was used.
# giving the anisotropy change (ΔAU ) .
# sele tme: 0 ms, gain: optmal).
# pERK [2] = experiment: Lumit immunoassay for pERK levels in HEK293T cells; format: cell-based; settings: pERK modulation
# 14-3-3σ/C-RAF259 [3] = target: T1, 14-3-3σ/C-RAF259 (Homo sapiens, UniProt P31947); experiment: Fluorescence anisotropy (FA) compound titration; format: binding; settings: 10 nM C-RAF259-FAM 10-mer, 5 μΜ 14-3-3σ, overnight; read-out: Compound titrations EC50 value C-RAF259
# Procedure: (§1) In analogy to our previous work, two orthogonal assays were used for screening (Figure S2). […] Dose responses of compounds were performed in the absence and presence of the C-RAF259 phospho-peptide to distinguish between neutral binders and cooperative molecular glues. The experiment was performed as a time course, with measurements every 8 h, after an 1 h incubation. Additionally, the compounds were tested in a fluorescence anisotropy (FA) assay in the presence of the 5-carboxyfluorescein-(FAM)-labeled C-RAF259 peptide. […] The full dose–response data for all compounds are available in the SI (Tables S2–S5, Figures S5–S8, Figures S15–S18, Figures S25–S32, Figures S37–S39). The dose–response data from both assays were also visually compared in the form of bar graphs. […] For FA experiments, the EC50 values from the overnight measurement were calculated and plotted as bar graphs showing the […] log EC50 value (pEC50). Compounds acting as MGs were expected to show increases in both types of bar graphs.
# (§2) transferred in the assay plates.
# (§3) The reacton mixtures were incubated
# (§4) dispensed in the assay plates.
# (§5) incubaton at room temperature .
# 14-3-3σ/C-RAF = 14-3-3σ/C-RAF (Homo sapiens, UniProt P31947); experiment: cell-based
# [4] = Solubility in the assay conditions; format: physicochemical; settings: MS assay conditions
# C-RAF/C-RAF = settings: with N-RAS Q61L; 100% = DMSO mBU
# N-RAS Q61L/C-RAF = settings: HEK293T; 100% = DMSO mBU, 0% = N-RAS/C-RAF R89L
# 14-3-3σ/C-RAF259 [5] = target: T1, 14-3-3σ/C-RAF259; experiment: FA protein titration, C-RAF259 peptide; settings: appKd DMSO / appKd compound
# 14-3-3σ [6] = target: T2, 14-3-3σ (Homo sapiens, UniProt P31947); experiment: Intact mass spectrometry assay, apo (no peptide); format: binding; set-up: full-length for mass spectrometry and fluorescence anisotropy assays; made in house; host or cells: E. coli Rosetta 2(DE3)pLysS, pPROEX HTb vector; settings: 1 μM compound, 100 nM 14-3-3σ
# T2 sequence (P31947 1-248): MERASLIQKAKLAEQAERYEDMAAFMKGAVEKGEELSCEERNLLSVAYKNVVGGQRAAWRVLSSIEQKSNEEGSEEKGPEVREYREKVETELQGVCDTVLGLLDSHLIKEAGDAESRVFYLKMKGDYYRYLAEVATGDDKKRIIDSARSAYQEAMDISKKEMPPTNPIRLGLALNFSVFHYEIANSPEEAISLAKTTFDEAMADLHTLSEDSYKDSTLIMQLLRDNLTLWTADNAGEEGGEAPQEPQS
# Procedure: as §1, §2, §3, §4, §5
# 14-3-3σ/C-RAF259 [7] = target: T1, 14-3-3σ/C-RAF259; experiment: Intact mass spectrometry assay with C-RAF259 phospho-peptide; format: binding; set-up: full-length for mass spectrometry and fluorescence anisotropy assays; made in house; host or cells: E. coli Rosetta 2(DE3)pLysS (14-3-3σ); peptides from Elim Biopharmaceuticals; settings: 1 μM compound, 100 nM 14-3-3σ, 18 µM peptide
# Procedure: as §1, §2, §3, §4, §5
# 14-3-3σ [8] = target: T2, 14-3-3σ; experiment: FA, Kd of 15-mer RAF peptides
# Procedure: Ea ch compound was measured in triplicates, i n two i ndependent experi ments. Fluorescence anisotropy measurements were performed directly and a€er overnight incubaton at room temperature.
# Fluorescence anisotropy measurements were performed a€er overnight incubaton at room temperature .
# pERK [9] = experiment: Lumit immunoassay for pERK with 14-3-3 C38N mutant; format: cell-based; settings: HEK293T
# 14-3-3σ/C-RAF, sequence (P04049 whole entry partner, one chain of several): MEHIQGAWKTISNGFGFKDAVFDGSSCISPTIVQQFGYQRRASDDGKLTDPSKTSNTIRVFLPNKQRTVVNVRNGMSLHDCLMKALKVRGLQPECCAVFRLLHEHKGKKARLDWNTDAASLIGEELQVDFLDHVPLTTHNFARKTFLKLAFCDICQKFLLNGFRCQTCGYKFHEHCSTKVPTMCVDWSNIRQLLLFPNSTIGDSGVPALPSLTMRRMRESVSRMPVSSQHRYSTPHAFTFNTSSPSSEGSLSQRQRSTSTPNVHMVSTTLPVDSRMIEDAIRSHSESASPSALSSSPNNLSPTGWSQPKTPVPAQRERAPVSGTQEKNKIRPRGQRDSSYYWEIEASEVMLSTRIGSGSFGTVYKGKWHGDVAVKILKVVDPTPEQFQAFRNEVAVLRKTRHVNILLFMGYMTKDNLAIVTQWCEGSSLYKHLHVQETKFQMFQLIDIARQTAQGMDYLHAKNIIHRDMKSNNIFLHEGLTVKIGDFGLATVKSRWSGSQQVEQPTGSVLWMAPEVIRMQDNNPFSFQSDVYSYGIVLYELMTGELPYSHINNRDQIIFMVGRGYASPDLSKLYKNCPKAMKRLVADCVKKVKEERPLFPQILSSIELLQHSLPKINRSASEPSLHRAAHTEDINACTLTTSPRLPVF
EC50 (14-3-3σ/C-RAF259 [3]),"Fold stabilization (100 µM compound), C-RAF259 (10mer) (14-3-3σ/C-RAF259 [5])","% bound, APO, 1h (14-3-3σ [6])","% bound, APO, 8h (14-3-3σ [6])","% bound, APO, 16h (14-3-3σ [6])","% bound, APO, 24h (14-3-3σ [6])","% bound, C-RAF259 (11mer), 1h (14-3-3σ/C-RAF259 [7])","% bound, C-RAF259 (11mer), 8h (14-3-3σ/C-RAF259 [7])","% bound, C-RAF259 (11mer), 16h (14-3-3σ/C-RAF259 [7])","% bound, C-RAF259 (11mer), 24h (14-3-3σ/C-RAF259 [7])",SMILES,further results
–,–,–,–,–,–,–,–,–,–,O=C(CCl)NCC1CCN(S(=O)(=O)c2ccc(Br)cc2)CC1 [Compound 22],clients emerged as hits [1]: six
–,–,–,–,–,–,–,–,–,–,"CNc1ncc2cc(-c3cc(NC(=O)NCCC(C)(C)C)c(F)cc3C)c(C)nc2n1 [LY3009120, reference compound]",time taken to modulate the pathway (pERK [2]): 3 h
1000 ± 1000 nM,–,–,–,–,–,–,–,–,–,O=C(CCl)N1CCC2(CCN(S(=O)(=O)c3ccc(Br)c(F)c3)C2)C1 (stereo not drawn) [Compound 86],EC50 (14-3-3σ/C-RAF): 300 nM
2000 ± 1000 nM,–,–,–,–,–,–,–,–,–,O=C(CCl)N1CC2(C1)CN(S(=O)(=O)c1ccc(Br)cc1)CCO2 [Compound 78],solubility in the assay conditions [4]: poor solubility; decrease in C-RAF homodimer formation (C-RAF/C-RAF): ~20%; EC50 (14-3-3σ/C-RAF): 1200 nM; reduction of the N-RAS Q61L/C-RAF interaction (N-RAS Q61L/C-RAF): no clear trend
2000 nM,–,–,–,–,–,–,–,–,–,O=C(CCl)N1CC2(C1)CN(S(=O)(=O)c1ccc(Br)c(F)c1)CCO2 [Compound 70],decrease in C-RAF homodimer formation (C-RAF/C-RAF): ~20%; reduction of the N-RAS Q61L/C-RAF interaction (N-RAS Q61L/C-RAF): no clear trend
15000 ± 2000 nM,2 fold,9.9%,27.2%,47.2%,65%,27.5%,53.6%,79%,80.8%,O=C(CCl)N1CC2(CC(NS(=O)(=O)c3ccc(Br)c(F)c3)C2)C1 [Compound 64],–
8000 ± 1000 nM,2 fold,0.9%,1.9%,2.5%,3.8%,–,38.1%,59.1%,81.4%,O=C(CCl)NCC1CCN(S(=O)(=O)c2ccc(Cl)c(C(F)(F)F)c2)CC1 [Compound 31],–
14000 ± 1000 nM,21 fold,0%,0.5%,0.5%,1.5%,7.3%,13.7%,26.7%,51.8%,Cc1ccc(S(=O)(=O)N2CCC(CNC(=O)CCl)CC2)cc1 [Compound 24],–
–,–,–,–,–,–,–,–,–,–,"CSCC[C@H](NC(=O)[C@H](Cc1c[nH]cn1)NC(=O)[C@@H](NC(=O)[C@H](CC(N)=O)NC(=O)[C@@H]1CCCN1C(=O)[C@@H](NC(=O)[C@H](COP(=O)(O)O)NC(=O)[C@@H](NC(=O)[C@H](CO)NC(=O)[C@H](CCCNC(=N)N)NC(=O)[C@H](CCC(N)=O)NC(=O)[C@H](CCCNC(=N)N)NC(=O)[C@H](CCC(N)=O)NC(=O)[C@H](CO)NC(=O)c1ccc2c(c1)C(=O)OC21c2ccc(O)cc2Oc2cc(O)ccc21)[C@@H](C)O)[C@@H](C)O)C(C)C)C(=O)N[C@H](C(N)=O)C(C)C [C-RAF 15-mer, 5-FAM-SQRQRST{pS}TPNVHMV-CONH2]",Kd (14-3-3σ [8]): 8000 to 10000 nM
–,–,–,–,–,–,–,–,–,–,"CC(=O)Nc1cccc(-n2c(=O)n(C3CC3)c(=O)c3c(Nc4ccc(I)cc4F)n(C)c(=O)c(C)c32)c1 [Trametinib, reference compound]",time taken to modulate the pathway (pERK [2]): 3 h; effect on pERK with the C38N mutant (pERK [9]): same effect
5000 ± 1000 nM,9 fold,–,2.9%,4.4%,7.4%,2.9%,6.5%,10.7%,32.2%,O=Cc1ccc(S(=O)(=O)N2CCC(CNC(=O)CCl)CC2)cc1 [Compound 21],–
3000 ± 1000 nM,22 fold,1%,1.5%,2.9%,4.3%,12.1%,32.8%,47.8%,64.4%,O=C(CCl)NCC1CCN(S(=O)(=O)c2ccc(Cl)cc2)CC1 [Compound 12],–
–,–,–,–,–,–,–,–,–,–,CC[C@H](C)[C@H](NC(=O)[C@H](CCCNC(=N)N)NC(=O)[C@H](CCC(N)=O)NC(=O)[C@H](CC(C)C)NC(=O)c1ccc2c(c1)C(=O)OC21c2ccc(O)cc2Oc2cc(O)ccc21)C(=O)N[C@@H](CCCNC(=N)N)C(=O)N[C@@H](CO)C(=O)N[C@H](C(=O)N[C@@H](COP(=O)(O)O)C(=O)N[C@H](C(=O)N1CCC[C@H]1C(=O)N[C@@H](CC(N)=O)C(=O)N[C@H](C(=O)N[C@@H](Cc1c[nH]cn1)C(=O)N[C@@H](CCSC)C(=O)N[C@H](C(N)=O)C(C)C)C(C)C)[C@@H](C)O)[C@@H](C)O [A-RAF 15-mer],Kd (14-3-3σ [8]): 8000 to 10000 nM
2000 ± 1000 nM,–,–,–,–,–,–,–,–,–,O=C(CCl)N1CC2(C1)CN(S(=O)(=O)c1ccc(I)cc1)CCO2 [Compound 79],solubility in the assay conditions [4]: poor solubility
2000 ± 1000 nM,13 fold,0%,0.5%,1.5%,4.7%,35.9%,60.5%,78.9%,93.9%,O=C(CCl)NCC1CCN(S(=O)(=O)c2cc(F)c(Br)c(F)c2)CC1 [Compound 40],–
1000 ± 500 nM,–,–,–,–,–,–,–,–,–,O=C(CCl)NCC1CCN(S(=O)(=O)c2ccc(Cl)c(F)c2)CC1 [Compound 29],EC50 (14-3-3σ/C-RAF): 140 nM
